# Source: patent US11427604B2 (Mindset Pharma Inc., priority 2020, dated 2022)
# Experiments:
# [1] = Human liver microsomes stability with NADPH
# Protocol: (§1) The objective of this study was to estimate in vitro metabolic stability of 1-45 in pooled human and male mouse liver microsomes. The concentrations of exemplary compounds in reaction systems were evaluated by LC-MS/MS for estimating the stability in pooled human and male mouse liver microsomes. The in vitro intrinsic clearances of test compounds were determined as well.
# (§2) A master solution in the “Incubation Plate” containing phosphate buffer, ultra-pure H2O, MgCl2 solution and liver microsomes was made according to Table --. The mixture was pre-warmed at 37° C. water bath for 5 minutes.
# (§3) 40 μL of 10 mM NADPH solution was added to each well. The final concentration of NADPH was 1 mM. The negative control samples were prepared by replacing NADPH with 40 μL of ultra-pure H2O. Samples were prepared in duplicate. Negative controls were prepared in singlet.
# (§4) The reaction was started with the addition of 4 μL of 200 μM test compounds or control compounds to each master solution to get the final concentration of 2 μM. This study was performed in duplicate.
# (§5) Aliquots of 50 μL were taken from the reaction solution at 0, 15, 30, 45 and 60 minutes. The reaction solutions were stopped by the addition of 4 volumes of cold methanol with IS (100 nM alprazolam, 200 nM imipramine, 200 nM labetalol and 2 μM ketoprofen). Samples were centrifuged at 3,220 g for 40 minutes. Aliquot of 90 μL of the supernatant was mixed with 90 μL of ultra-pure H2O and then was used for LC-MS/MS analysis.
# (§6) LC/MS analysis was performed for all samples from this study using a Shimadzu liquid chromatograph separation system equipped with degasser DGU-20A5R; solvent delivery unit LC-30AD; system controller SIL-30AC; column oven CTO-30A; CTC Analytics HTC PAL System. Mass spectrometric analysis was performed using an Triple Quad™ 5500 instrument.
# (§7) All calculations were carried out using Microsoft Excel. Peak area ratios of test compound to internal standard (listed in the below table) were determined from extracted ion chromatograms.
# (§8) All calculations were carried out using Microsoft Excel. Peak areas were determined from extracted ion chromatograms. The slope value, k, was determined by linear regression of the natural logarithm of the remaining percentage of the parent drug vs. incubation time curve.
# (§9) Conversion of the in vitro t1/2 (min) into the in vitro intrinsic clearance (in vitro CLint, in μL/min/mg proteins) was done using the following equation (mean of duplicate determinations):
# (§10) [formula] […] Results & Discussion
# [2] = Rat liver microsomes stability with NADPH
# [3] = Mouse liver microsomes stability with NADPH
# Protocol: as §1, §2, §3, §4, §5, §6, §7, §8, §9, §10
smiles,measurement,setting,value
"[2H]C([2H])([2H])N(C([2H])([2H])[2H])C([2H])([2H])C([2H])([2H])c1c[nH]c2cccc(O)c12 [Compound I-45, 3-(2-(bis(methyl-d3)amino)ethyl-1,1,2,2-d4)-1H-indol-4-ol]",Remaining Percentage (%) after 60 min,"[1]; Human, with NADPH, 2 μM",73.65%
same,half-life at 2 μM,"[1]; human, microsomes",2.27 h
same,microsomal CLint at 2 μM,"[1]; human, microsomes",10.2 µL/min/mg
same,Remaining Percentage (%) after 60 min,"[2]; Rat, with NADPH, 2 μM",3.34%
same,half-life at 2 μM,"[2]; rat, microsomes",0.204 h
same,microsomal CLint at 2 μM,"[2]; rat, microsomes",113 µL/min/mg
same,Remaining Percentage (%) after 60 min,"[3]; Mouse, with NADPH, 2 μM",64.91%
same,half-life at 2 μM,"[3]; male, mouse, microsomes",1.6 h
same,microsomal CLint at 2 μM,"[3]; male, mouse, microsomes",14.4 µL/min/mg
